Assay results from patent US5519055A, “Substituted kynurenines and process for their preparation” (University of Maryland at Baltimore, priority 1993, dated 1996).

Legend:
[1] = biological target: T1, KAT (partially purified enzyme preparation) (Rattus norvegicus, UniProt Q08415); experiment: Kinetic analysis of KAT inhibitors using a partially purified enzyme preparation; assay type: biochemical; conditions: KYN varied 2 μM to 2 mM, 1 mM pyruvate, pH 8.0, 2 h at 37° C., double reciprocal plots
T1 construct: a preparation of partially purified enzyme in a total volume of 0.1 ml; from tissue
T1 sequence (Q08415 1-423): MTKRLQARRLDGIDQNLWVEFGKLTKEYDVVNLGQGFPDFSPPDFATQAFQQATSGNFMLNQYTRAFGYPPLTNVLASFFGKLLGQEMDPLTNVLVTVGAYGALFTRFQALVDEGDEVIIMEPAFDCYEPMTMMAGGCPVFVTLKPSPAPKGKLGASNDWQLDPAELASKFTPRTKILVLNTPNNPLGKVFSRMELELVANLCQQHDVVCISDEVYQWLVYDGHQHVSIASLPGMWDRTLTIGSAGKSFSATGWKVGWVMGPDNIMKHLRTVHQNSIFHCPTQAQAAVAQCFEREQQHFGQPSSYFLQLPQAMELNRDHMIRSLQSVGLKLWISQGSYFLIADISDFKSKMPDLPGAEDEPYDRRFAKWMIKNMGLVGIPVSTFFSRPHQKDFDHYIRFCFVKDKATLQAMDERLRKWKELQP
Protocol: C) Kinetic analysis of KAT inhibitors using a partially purified enzyme preparation (Brain Research, 534, 37-44 (9)
The reaction mixture contained [^3 H]KYN (30 nCi), diluted with unlabelled KYN to yield a final concentration of 2 μM, 1 mM pyruvate, 70 μM pyridoxal 5'-phosphate, 150 mM Tris-acetate buffer, pH 8.0, and a preparation of partially purified enzyme in a total volume of 0.1 ml. Test compounds were included in the incubation mixture as needed. The reaction was started by the addition of pyruvate. After incubation for 2 h at 37° C., the reaction was terminated by the addition of 14 μl of 50% (w/w) trichloroacetic acid. Subsequently, 1 ml of 0.1M HCl was added and denaturated protein was removed by a 4-min centrifugation in a Beckman 52 B microfuge. 1 ml of the resulting supernatant was applied to a Dowex 50 W column (0.5×1.0 cm; H^+ form) and washed with 1 ml of 0.1M HCl, followed by 1 ml of distilled water. [^3 H]KYNA was eluted with 2 ml of distilled water and quantitated by liquid scintillation spectrometry. Enzyme measurements were performed in triplicate samples. Blanks were obtained by using an enzyme preparation which had been heat-deactivated for 10 min in a boiling water bath. […] Double reciprocal plots were constructed and lines of best fit were determined by linear regression analysis.

[2] = system: KYNA production by rat tissue slices; experiment: Determination of inhibition of KYNA production by rat tissue slices (cerebral cortex); assay type: cell-based; conditions: 50 μM L-KYN, 2 h at 37° C., pH 7.4
Source text: (§1) Compounds which act as KAT inhibitors may be identified using standard test, for example, measuring their ability to inhibit KAT activity in rat brain homogenate as described, for example, in J. Neurochem., 57, 533-540 (1991) or their inhibitory effect on Kynurenic Acid (KYNA) production by rat brain slices as described, for example, in J. Neurochem., 52, 1629-1636 (1989). KAT catalyzes the biosynthesis of KYNA from Kynurenine (KYN): [drawing 2] and it is singularly responsible for the regulation of extracellular KYNA concentrations in the brain (J. Neurochem., 57, 533-540, 1991).
B) Determination of inhibition of KYNA production by rat tissue slices
Routinely, slices (base 1×1 mm; weight ≈1.5 mg/slice) from the cerebral cortex were separated on ice and transferred to culture wells (10 slices/well) containing 1 ml of oxygenated Krebs-Ringer buffer (NaCl, 118.5 mM; KCl, 4.75 mM; CaCl 2, 1.77 mM; MgSO4, 1.18 mM; NaH2 PO4, 12.9 mM; NaH2 PO4, 3 mM; glucose, 5mM; pH 7.4). Subsequently, the tissue was preincubated for 10 min at 37° C. and incubated further for 2 h at 37° C., in the presence of 50 μM L-KYN in an oxygenated chamber, on a shaking water bath. Compounds of the present invention were included in the incubation mixture as needed. Following incubation, the culture wells were immediately placed on ice, and the slices were rapidly separated from the incubation medium.
For KYNA determination, 1 ml samples of the incubation medium were immersed in a boiling water bath for 10 min, and the precipitated proteins were removed by centrifugation (8,730× g, 10 min). The supernatants were diluted (1:1, v/v) with 0.2M HCl and applied to Dowex 50 W (hydrogen form, Sigma) cation-exchange columns (0.5×2 cm). Subsequently, the columns were washed with 1 ml of 0.1M HCl and 1 ml of water, and the fraction containing KYNA was eluted with 2 ml of water. The eluates were applied to a 3-μm C18 HPLC column (100×3.2 internal diameter, Bioanalytical Systems, West Lafayette, Ind., U.S.A.), and KYNA was isocratically eluted with a mobile phase containing 50 mM ammonium acetate and 5% methanol at a flow rate of 0.5 ml/min. Under these conditions, the retention time of KYNA was ≈7 min.
Data were recorded and calculated with a Hewlett-Packard 3390A integrator connected to a model 160 UV absorbance detector (Beckman Instruments, Berkeley, Calif., U.S.A.) set at 340 nm.
In this assay, (D,L)-2-amino-4-(2-amino-5-chlorophenyl)-4-oxo butyric acid, also known as D,L-5-chloro-kynurenine, was tested with the following results: […]

[3] = biological target: Kynurenine Aminotransferase (KAT); experiment: Determination of KAT activity inhibition in rat brain homogenate; assay type: biochemical; conditions: 2 μM [3H]KYN, 2 h at 37° C., pH 8.0, read-out: ID50 (inhibition of KAT enzyme activity)
Source text: as §1
A) Determination of KAT activity inhibition in rat brain homogenate
KAT was measured as described in detail by Okuno et al. (Measurement of rat brain kynurenine aminotransferase at physiological kynurenine concentrations, J. Neurochem., 57, 533-540, 1991).
Briefly, animals were killed by decapitation and the brain tissue was homogenized (1:5 v/w in 5 mM Trisacetate buffer, pH 8.0, containing 10 mM 2-mercaptoethanol and 50 μM pyridoxal 5'-phosphate) and incubated for 2 h at 37° C. in the presence of 2 μM [^3 H]KYN (30 nCi), 1 mM 2-oxoglutarate and 70 μM pyridoxal 5'-phosphate in 150 mM Tris-acetate buffer, pH 8.0. […]
Newly synthesized [^3 H]KYNA was separated from [^3 H]KYN on a Dowex 50 W cation-exchange column and quantitated by liquid scintillation spectrometry. […]

[4] = system: glycine modulatory site of the N-methyl-D-aspartate (NMDA) receptor complex; conditions: J. Neurochem., 52, 1319-1328, 1989; cited from earlier work
[5] = system: excitatory amino acid (EAA) receptor; conditions: J. Neurochem., 52, 1319-1328, 1989; cited from earlier work
[6] = substrate: Nc1ccccc1C(=O)C[C@H](N)C(=O)O; experiment: purified protein, by the assay type; conditions: other: substrate KYN varied 2 μM to 2 mM, 1 mM pyruvate, pH 8.0, 2 h at 37° C., double reciprocal plots

`Nc1ccc(Cl)cc1C(=O)CC(N)C(=O)O` (racemic) [Example 3, 2-amino-4-(2-amino-5-chlorophenyl)-4-oxo-butyric acid] showed a Ki [1] of 88 µM, an inhibition at 25 µM ([2]; 25 μM compound) of 33% and an inhibition at 50 µM ([2]; 50 μM compound) of 39%. The inhibition at 100 µM ([2]; 100 μM compound) was 56%, the inhibition at 250 µM ([2]; 250 μM compound) was 66% and the IC50 [3] was 78 µM.

In the case of `O=C(O)c1cc(=O)c2ccccc2[nH]1` [KYNA, Kynurenic Acid], the “affinity to the glycine modulatory site of the NMDA receptor complex” value [4] is given as “particularly high affinity” and the “excitatory amino acid (EAA) receptor antagonism” value [5] is given as “effective excitatory amino acid (EAA) receptor antagonist”.

B1: KAT (partially purified enzyme preparation) (Rattus norvegicus) (protein)
chain: T1 sequence (Q08415 1-423)
With B1 the Km [6] was 369 µM.
